In patent US11122997B2, “Modulating the aryl hydrocarbon receptor system to treat major depressive disorder” (Mayo Foundation for Medical Education and Research, priority 2015, dated 2021):

Columns and labels:
U251 glioma cells = assay: Ketamine treatment of U251 glioma cell culture, mRNA (RT-qPCR) and protein (Western blot) levels; assay type: cell-based, human; settings: U251 glia
Method: (§1) Lysates obtained from cells subjected to knockdown or overexpression were used to isolate total RNA (Zymo Research). The purity of the extracted RNA samples was assessed using a Nanodrop instrument (Thermo Scientific). All samples had acceptable A260/A280 ratios. AHR, ARNT, AHRR, IDO1, and TDO2 mRNAs levels were quantified by reverse transcription quantitative PCR (RT-qPCR) using a one step RNA-to-Ct™ kit (Life Technologies). The kit contains reagents for converting RNA to cDNA, followed by primer-specific amplification of the desired mRNA (in this case, AHR, ARNT, AHRR, IDO1, and TDO2). GAPDH was used as a reference gene. The quantification of these mRNAs was carried out by employing the ΔΔCt method as described elsewhere (Ingle et al., Cancer Discovery 3(7):812-825, 2013).
(§2) Cell lysates obtained after transfections and from LCLs were subjected to Western immunoblotting to detect levels of AHR, AHRR, ARNT, TDO2, and IDO1 proteins. Briefly, equal amounts of protein (as determined by the BCA protein assay) were loaded onto premade Criterion gels (Bio-Rad) and run for 1 hour at 180V. Proteins from the gels were electrophoretically transferred onto PVDF membranes and blocked at room temperature for 1 hour with 5% non-fat milk dissolved in TBST. The membranes were incubated with primary antibodies (anti-AHR from GeneTex, Inc. (Irvine, Calif.); anti-ARNT and anti AHRR from Sigma (St. Louis, Mo.); TDO2 from OriGene Technologies, Inc.; and IDO1) dissolved in 5% non-fat milk containing TBST at 4° C. overnight with gentle rocking. Following incubation, the membranes were vigorously washed with TB ST several times and then incubated with appropriate secondary antibodies, dissolved in 5% non-fat milk containing TBST at room temperature for 1 hour. Several TBST washes were carried out before ECL reagents were applied to the membranes and radiographic images were captured on X-ray films (GE). B-actin protein also was detected and served as a loading control. Quantification of Western immunoblots was carried out using NIH Image-J (Abramoff et al., Biophotonics Intl 11(7):36-42, 2004), and plotted in GraphPad-Prism software.

iPSC-derived neurons = assay: Ketamine treatment of iPSC-derived neuron culture, mRNA and protein levels; assay type: cell-based, human
Method: Human induced pluripotent stem cells (iPSCs) were purchased from Axol, UK and were differentiated as per the company's protocol. The cells were differentiated for 30 days before being used for lentivirus-mediated knockdown experiments.
as §1, §2

[1] = cited from earlier work
glioblastoma cells = assay: Secreted kynurenine in conditioned media of glioblastoma cells (HPLC); settings: ketamine vs vehicle (FIG. 10)
[2] = other NMDA receptor antagonists; cited from earlier work
[3] = ketamine vs vehicle (FIGS. 8A, 8B)

Row | SMILES | protein level of IDOL (U251 glioma cells; ketamine for 24 hours vs vehicle (FIG. 9A)) | mRNA level of AHRR (U251 glioma cells; [3]) | mRNA level of IDOL (U251 glioma cells; [3]) | mRNA level of TDO2 (U251 glioma cells; [3]) | mRNA level of AHRR (iPSC-derived neurons; ketamine vs vehicle (FIG. 8C)) | mRNA level of IDOL (iPSC-derived neurons; ketamine vs vehicle (FIG. 8C)) | mRNA level of TDO2 (iPSC-derived neurons; ketamine vs vehicle (FIG. 8C)) | protein level of AHRR (iPSC-derived neurons; ketamine vs vehicle (FIG. 9B)) | protein level of IDOL (iPSC-derived neurons; ketamine vs vehicle (FIG. 9B)) | protein level of TDO2 (iPSC-derived neurons; ketamine vs vehicle (FIG. 9B)) | effect on mood ([1]; severely depressed patients) | duration of effects ([1]; single infusion) | secreted KYN in cell culture conditioned media (glioblastoma cells) | ketamine-like antidepressant effects [2]
1 | CNC1(c2ccccc2Cl)CCCCC1=O (stereo not drawn) [Ketamine] | decreased levels | Decreased levels | decreased levels | decreased levels | Decreased levels | decreased levels | decreased levels | Decreased levels | decreased levels | decreased levels | rapid improvement in mood | last for weeks | decreased levels | –
2 | C[C@]12N[C@H](Cc3ccccc31)c1ccccc12 [MK801] | – | – | – | – | – | – | – | – | – | – | – | – | – | fail to demonstrate ketamine-like antidepressant effects
3 | CC12CC3CC(C)(C1)CC(N)(C3)C2 [memantine] | – | – | – | – | – | – | – | – | – | – | – | – | – | fail to demonstrate ketamine-like antidepressant effects
